Test results as given in ChEMBL document CHEMBL1127963, “Vasoactive eicosanoids: Synthesis of 12,20-dihydroxyeicosa-5(Z),8(Z),10(E),14(Z)-tetraenoic acid via a novel chiral bis-lactol” (1994).

Organism: Canis familiaris
Experiment: Compound was tested relaxation of contracted coronary arteries of canine at 5 x 10-e M (p<0.01)
Type: functional, Canis lupus familiaris

`O=C(O)CCC/C=C\C/C=C\C=C\C(O)C/C=C\CCCCCO` (stereo unspecified) was tested, and the Relation was 48%.
